Experimental data from patent US5731323A, “Quinuclidine derivatives as squalene synthase inhibitors” (Zeneca Limited, priority 1992, dated 1998).

Experiments:
Squalene synthase = experiment: Inhibition of squalene synthase (squalene formation from tritiated farnesyl pyrophosphate, rat liver microsomal protein); type: biochemical; settings: 2.5 μM, substrate 20 μM, 15 minutes, 37° C.
Description: (a) Inhibition of Squalene synthase
In this test, the ability of a compound to prevent the formation of squalene from a radioactive substrate (tritiated farnesyl pyrophosphate) is assessed.
The test compound is incubated at a concentration of 25 micromolar in 200 μl of a buffered solution containing potassium phosphate (50 mM), MgCl2 (4.95 mM), KF (9.9 mM), NADPH (0.9 mM) and rat liver microsomal protein (20 μg). Rat liver microsomes are prepared by the method described in published European Patent Application No. 324,421 and stored in liquid nitrogen prior to assay. Assay vials are kept at 37° C. throughout the incubation.
The reaction is started with the addition of the substrate (1-[^3 H]-farnesyl pyrophosphate), final concentration 20 μM, and stopped after 15 minutes reaction time with the addition of 50 μl of 4% KOH. The reaction products are separated from unreacted substrate after application to a C-18 octadecyl 1 ccBond column (Analytichem Int product No. 617101). An aqueous fraction is eluted with 250 μl of 0.1M KOH. Squalene is then eluted with 1.0 ml 10% ethylacetate in hexane and radioactivity determined. The difference in radioactivity in the presence and absence of the test compound is used to determine the level of inhibition. […] The IC50 can then be determined from a plot of percentage inhibition against concentration of test compound.

[1] = tested on: de novo hepatic cholesterol synthesis; experiment: Acute rat cholesterol synthesis assay (de novo hepatic cholesterol synthesis from exogenously administered 14C-acetate); type: in vivo; settings: female rats, dose and route not stated
Description: (b) Acute rat cholesterol synthesis assay.
This is an acute in vivo test in the rat to measure de novo hepatic cholesterol synthesis from exogenously administered ^14 C-acetate.
Female rats (35-55 g) are housed in reverse lighting conditions (red light from 0200 h-1400 h) for a period of about 2 weeks prior to test. Animals are allowed free access to chow and drinking water throughout this period. At test, animals should weigh 125-150 g.
Test compounds may be administered by oral gavage, dissolved or suspended in 0.5% polysorbate, or by ip or iv dosing. Control animals receive vehicle alone. After 1 hour the rats are injected ip with 25 μCi [2-^14 C]-acetate (NEN DUPONT. specific activity, 45-60 mCi/mmol NEC-085H, or AMERSHAM specific activity, 50-60 mCi/mmol CFA 14) in a volume of 0.25 ml saline (100 μCi/ml). After a further hour, rats are terminally anaesthetised with halothane and a blood sample obtained from the abdominal vena cava.
1 ml of plasma is lyophilised and then saponified in 2 ml ethanolic KOH (1 part 33% KOH, 9 parts ethanol) at 75° C. for 2 hours. After addition of an equal quantity of water, non-saponifiable lipids are extracted with two 5 ml volumes of hexane. The hexane extracts are evaporated to dryness and the residues dissolved in ethanol to determine cholesterol specific radioactivity. ED50 values can be determined in the standard way.

## CCCCOc1ccc(C#CC2(O)CN3CCC2CC3)cn1 (centres unmarked) [Example 1, 3-[2-(6-butoxy-3-pyridyl)ethynyl]quinuclidin-3-ol]
Squalene synthase
  inhibition (squalene synthase): about 99%
[1]
  decrease in the rate of cholesterol biosynthesis: 71%
